The target in test [1] is T1, FLT3-ITD (Homo sapiens, UniProt P36888).
T1 construct: FLT3-ITD; Invitrogen #PV6190
T1 sequence (P36888 1-993): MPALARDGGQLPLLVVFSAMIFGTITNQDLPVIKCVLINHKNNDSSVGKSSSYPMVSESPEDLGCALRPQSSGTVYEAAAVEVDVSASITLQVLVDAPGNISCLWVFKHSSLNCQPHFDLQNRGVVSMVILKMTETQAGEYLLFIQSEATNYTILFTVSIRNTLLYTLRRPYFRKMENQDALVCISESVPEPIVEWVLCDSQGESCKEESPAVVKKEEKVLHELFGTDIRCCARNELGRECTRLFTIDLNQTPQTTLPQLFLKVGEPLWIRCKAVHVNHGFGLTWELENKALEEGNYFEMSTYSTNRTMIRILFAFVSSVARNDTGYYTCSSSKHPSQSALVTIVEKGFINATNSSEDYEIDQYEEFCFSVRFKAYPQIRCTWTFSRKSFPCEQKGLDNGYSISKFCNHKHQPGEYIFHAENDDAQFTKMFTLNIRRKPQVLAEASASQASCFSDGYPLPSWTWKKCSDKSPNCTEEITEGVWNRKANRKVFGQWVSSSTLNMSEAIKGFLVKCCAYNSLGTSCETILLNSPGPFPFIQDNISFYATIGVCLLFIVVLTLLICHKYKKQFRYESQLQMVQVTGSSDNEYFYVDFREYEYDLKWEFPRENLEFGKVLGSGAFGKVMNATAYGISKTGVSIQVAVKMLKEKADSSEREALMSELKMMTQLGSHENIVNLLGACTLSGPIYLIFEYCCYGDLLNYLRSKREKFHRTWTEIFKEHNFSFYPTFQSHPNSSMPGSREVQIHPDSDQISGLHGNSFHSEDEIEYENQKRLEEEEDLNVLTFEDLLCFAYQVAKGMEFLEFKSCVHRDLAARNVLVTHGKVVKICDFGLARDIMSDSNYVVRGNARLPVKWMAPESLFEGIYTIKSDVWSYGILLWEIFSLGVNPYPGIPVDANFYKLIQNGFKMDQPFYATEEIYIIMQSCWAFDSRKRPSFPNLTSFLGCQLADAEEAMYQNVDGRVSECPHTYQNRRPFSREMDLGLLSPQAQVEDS
The test can be described thus: FLT3-ITD biochemical kinase assay (AlphaScreen). The procedure, abridged:
(§1)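 IC50 values reflect loss of AlphaScreen proximity signal (excitation 680 nm, emission 580 nm) from tyrosine phosphorylation of a biotinylated poly(Glu4-Tyr) substrate at 30 nM. ATP was 10 μM for the D835Y mutant and 100 μM for ITD. Detection used PY20 acceptor beads.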
A general note: Alpha assays give light when donor and acceptor beads are brought close together.

Test [2] has as its target c-Kit (Homo sapiens, UniProt P10721). In words: c-Kit biochemical assay (per US 2007/0032519). The procedure: The following Table 2 provides data indicating FLT3 ITD, FLT3 D835Y, and KIT biochemical activity, and BaF3 FLT3 ITD/F69L cellular inhibitory activity for exemplary compounds described in this disclosure. In the table below, activity is provided as follows: +++=0.0001<IC50<1 μM; ++=1 μM<IC50<10 μM, +=10 μM<IC50<200 μM. Assays for the biochemical activity of c-Kit and FMS were conducted according to those assays described in US Patent Application Publication number US 2007/0032519, the disclosure of which is hereby incorporated by reference in its entirety.

For test [3], the target named is T2, FLT3-D835Y (Homo sapiens, UniProt P36888, D835Y).
T2 construct: purchased Invitrogen PV3967
T2 sequence (P36888 27-993 D835Y): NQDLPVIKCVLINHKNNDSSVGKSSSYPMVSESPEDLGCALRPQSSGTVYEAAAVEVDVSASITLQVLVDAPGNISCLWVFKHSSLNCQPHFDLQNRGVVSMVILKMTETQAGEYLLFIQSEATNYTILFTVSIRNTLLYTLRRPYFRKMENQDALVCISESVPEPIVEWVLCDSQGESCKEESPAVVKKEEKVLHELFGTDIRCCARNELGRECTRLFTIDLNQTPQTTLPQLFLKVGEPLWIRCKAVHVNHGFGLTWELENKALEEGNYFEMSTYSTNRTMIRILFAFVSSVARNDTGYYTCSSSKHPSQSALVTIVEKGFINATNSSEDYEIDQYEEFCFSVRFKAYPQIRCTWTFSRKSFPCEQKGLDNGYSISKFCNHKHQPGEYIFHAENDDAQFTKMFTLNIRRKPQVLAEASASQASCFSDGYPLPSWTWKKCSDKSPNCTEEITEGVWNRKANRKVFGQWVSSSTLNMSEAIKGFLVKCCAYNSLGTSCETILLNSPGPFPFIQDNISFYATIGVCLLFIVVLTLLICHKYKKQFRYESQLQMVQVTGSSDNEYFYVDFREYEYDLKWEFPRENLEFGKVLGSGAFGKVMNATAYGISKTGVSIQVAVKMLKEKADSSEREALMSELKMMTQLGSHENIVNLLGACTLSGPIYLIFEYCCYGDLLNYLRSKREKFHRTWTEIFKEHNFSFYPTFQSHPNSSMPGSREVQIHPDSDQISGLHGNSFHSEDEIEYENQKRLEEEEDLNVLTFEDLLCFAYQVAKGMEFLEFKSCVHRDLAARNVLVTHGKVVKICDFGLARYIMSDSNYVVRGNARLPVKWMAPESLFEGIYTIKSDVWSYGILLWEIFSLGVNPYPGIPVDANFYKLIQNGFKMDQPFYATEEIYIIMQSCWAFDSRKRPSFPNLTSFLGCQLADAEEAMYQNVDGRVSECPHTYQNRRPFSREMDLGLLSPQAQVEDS
The test can be described thus: FLT3-D835Y biochemical kinase assay (AlphaScreen). The procedure, abridged:
as §1

Sequence of c-Kit (P10721 26-976): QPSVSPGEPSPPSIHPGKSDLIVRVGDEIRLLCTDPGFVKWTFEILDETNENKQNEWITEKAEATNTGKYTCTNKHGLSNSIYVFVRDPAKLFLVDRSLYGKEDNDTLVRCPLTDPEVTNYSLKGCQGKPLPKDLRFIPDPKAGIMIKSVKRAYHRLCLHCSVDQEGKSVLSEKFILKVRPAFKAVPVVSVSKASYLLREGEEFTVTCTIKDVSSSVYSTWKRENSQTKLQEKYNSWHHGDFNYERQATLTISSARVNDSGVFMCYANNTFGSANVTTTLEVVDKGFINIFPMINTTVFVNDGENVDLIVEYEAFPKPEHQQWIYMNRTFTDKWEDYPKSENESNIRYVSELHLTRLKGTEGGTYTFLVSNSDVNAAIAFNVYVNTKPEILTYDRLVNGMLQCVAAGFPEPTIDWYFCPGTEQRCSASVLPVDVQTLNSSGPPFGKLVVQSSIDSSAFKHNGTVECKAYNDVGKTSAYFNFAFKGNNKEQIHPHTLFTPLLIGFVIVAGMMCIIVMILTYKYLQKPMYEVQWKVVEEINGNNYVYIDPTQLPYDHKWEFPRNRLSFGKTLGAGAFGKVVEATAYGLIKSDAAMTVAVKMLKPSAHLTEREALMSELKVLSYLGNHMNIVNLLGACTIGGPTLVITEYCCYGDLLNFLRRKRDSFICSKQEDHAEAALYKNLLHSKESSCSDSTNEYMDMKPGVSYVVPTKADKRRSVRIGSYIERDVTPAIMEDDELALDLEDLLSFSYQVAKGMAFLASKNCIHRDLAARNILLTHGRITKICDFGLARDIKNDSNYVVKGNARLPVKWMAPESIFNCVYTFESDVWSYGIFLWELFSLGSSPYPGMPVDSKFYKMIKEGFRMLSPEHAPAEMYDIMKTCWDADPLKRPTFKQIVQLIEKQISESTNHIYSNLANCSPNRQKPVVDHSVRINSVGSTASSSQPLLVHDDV

For `CC(C)(C)n1cnc2ccc(-c3c[nH]c4ncc(-c5cnc(C(N)=O)c(Cl)c5)nc34)cc21` [P-364, 5-[7-(3-tert-butylbenzimidazol-5-yl)-5H-pyrrolo[2,3-b]pyrazin-2-yl]-3-chloro-pyridine-2-carboxamide], the half-inhibitory concentration (IC50) – broadly, the concentration needed to halve the response being measured – in test [1] was in the range of 0.0001 to 1 µM; in test [2] it was 1 to 10 µM; in test [3], 0.0001 to 1 µM.
For `COc1cnc2[nH]cc(-c3cnc4c(c3)ncn4C)c2c1` [P-055, 6-(5-methoxy-1H-pyrrolo[2,3-b]pyridin-3-yl)-3-methyl-imidazo[4,5-b]pyridine], the concentration for half-maximal inhibition (IC50) in test [1] fell in the range of 0.0001 to 1 µM; in test [2] it was 10 to 200 µM; in test [3], 10 to 200 µM.
`Cn1cnc2ccc(-c3c[nH]c4ncc(-c5cccc(S(=O)(=O)N6CCCC6)c5)cc34)cc21` [P-122, 1-methyl-6-[5-(3-pyrrolidin-1-ylsulfonylphenyl)-1H-pyrrolo[2,3-b]pyridin-3-yl]benzimidazole]: the IC50 in test [1] was 0.0001 to 1 µM; in test [2] it was 1 to 10 µM; in test [3] it was 0.0001 to 1 µM.
In the case of `COc1cnc2[nH]cc(-c3ccc4ncn(C5CCNC5)c4c3)c2c1` (centres unmarked) [P-067, 5-methoxy-3-(3-pyrrolidin-3-ylbenzimidazol-5-yl)-1H-pyrrolo[2,3-b]pyridine], the IC50 in test [2] is 10 to 200 µM; in test [3], 0.0001 to 1 µM.
In the same order, the values of `COc1ccc(-c2cnc3[nH]cc(-c4ccc5ncsc5c4)c3n2)cn1` [P-077, 6-[2-(6-methoxy-3-pyridyl)-5H-pyrrolo[2,3-b]pyrazin-7-yl]-1,3-benzothiazole] are 1 to 10 µM and 0.0001 to 1 µM.
Take `Nc1n[nH]c2ccc(-c3c[nH]c4ncccc34)cc12` [P-006, 5-(1H-pyrrolo[2,3-b]pyridin-3-yl)-1H-indazol-3-amine]: the IC50 in test [1] and in test [2] was 1 to 10 µM throughout.
As to `COc1cnc2[nH]cc(-c3cc4nc[nH]c4cc3C)c2c1` [P-026, 5-methoxy-3-(6-methyl-1H-benzimidazol-5-yl)-1H-pyrrolo[2,3-b]pyridine], the IC50 in test [2] is 10 to 200 µM; in test [3], 1 to 10 µM.
With `CC(C)(C)n1cnc2ccc(-c3c[nH]c4ncc(-c5cncc(N6CCOCC6)c5)nc34)cc21` [P-387, 4-[5-[7-(3-tert-butylbenzimidazol-5-yl)-5H-pyrrolo[2,3-b]pyrazin-2-yl]-3-pyridyl]morpholine], the 50% inhibitory concentration (IC50) in test [1] and in test [2] was 0.0001 to 1 µM throughout.
On to `COc1cnc2[nH]cc(-c3ccc4ncn(C5CCCCC5)c4c3)c2c1` [P-072, 1-cyclohexyl-6-(5-methoxy-1H-pyrrolo[2,3-b]pyridin-3-yl)benzimidazole], for which the IC50 in test [2] was in the range of 1 to 10 µM; in test [3] it was 0.0001 to 1 µM.
Regarding `CC(C)(C)n1cnc2ccc(-c3c[nH]c4ncc(-c5cncc(F)c5)nc34)cc21` [P-386, 7-(3-tert-butylbenzimidazol-5-yl)-2-(5-fluoro-3-pyridyl)-5H-pyrrolo[2,3-b]pyrazine], the IC50 in test [1] fell in the range of 0.0001 to 1 µM; in test [2], 1 to 10 µM.
The like results for `Cc1nn(C)cc1-c1ccc(-c2cnc3[nH]cc(-c4ccc5ncn(C(C)(C)C)c5c4)c3n2)cc1` [P-323, 7-(3-tert-butylbenzimidazol-5-yl)-2-[4-(1,3-dimethylpyrazol-4-yl)phenyl]-5H-pyrrolo[2,3-b]pyrazine] were, in that order, 0.0001 to 1 µM and 1 to 10 µM.
Turning to `Cc1cc2[nH]cnc2cc1-c1c[nH]c2ncccc12` [P-025, 6-methyl-5-(1H-pyrrolo[2,3-b]pyridin-3-yl)-1H-benzimidazole], the values for the 50% inhibitory concentration (IC50) in test [2] and in test [3] were 10 to 200 µM and 1 to 10 µM, respectively.
As to `CC(C)(C)n1cnc2ccc(-c3c[nH]c4ncc(-c5cnc(Cl)nc5)nc34)cc21` [P-389, 7-(3-tert-butylbenzimidazol-5-yl)-2-(2-chloropyrimidin-5-yl)-5H-pyrrolo[2,3-b]pyrazine], the concentration for half-maximal inhibition (IC50) was 0.0001 to 1 µM in test [1] and 10 to 200 µM in test [2].
In the same order, the values of `Cc1nn(C)cc1-c1cnc2[nH]cc(-c3ccc4ncn(C(C)(C)C)c4c3)c2n1` [P-324, 7-(3-tert-butylbenzimidazol-5-yl)-2-(1,3-dimethylpyrazol-4-yl)-5H-pyrrolo[2,3-b]pyrazine] are 0.0001 to 1 µM and 0.0001 to 1 µM.
Consider `COc1cnc2[nH]cc(-c3ccc4ncn(C5CCNCC5)c4c3)c2c1` [P-071, 5-methoxy-3-[3-(4-piperidyl)benzimidazol-5-yl]-1H-pyrrolo[2,3-b]pyridine], for which the half-maximal inhibitory concentration (IC50) in test [2] is 10 to 200 µM; in test [3], 0.0001 to 1 µM.
As to `Cn1cc(-c2cnc3[nH]cc(-c4ccc5ncn(C)c5c4)c3c2)ccc1=O` [P-118, 1-methyl-5-[3-(3-methylbenzimidazol-5-yl)-1H-pyrrolo[2,3-b]pyridin-5-yl]pyridin-2-one], the IC50 in test [2] fell in the range of 1 to 10 µM; in test [3], 0.0001 to 1 µM.
For the compound `COc1cnc2[nH]cc(-c3ccc4ncn(Cc5ccccc5)c4c3)c2c1` [P-073, 1-benzyl-6-(5-methoxy-1H-pyrrolo[2,3-b]pyridin-3-yl)benzimidazole], the IC50 in test [2] is 1 to 10 µM; in test [3], 0.0001 to 1 µM.
In the same order, the values of `COc1cc(-c2cnc3[nH]cc(-c4ccc5ncsc5c4)c3n2)ccn1` [P-075, 6-[2-(2-methoxy-4-pyridyl)-5H-pyrrolo[2,3-b]pyrazin-7-yl]-1,3-benzothiazole] are 10 to 200 µM and 0.0001 to 1 µM.
Turning to `CC(C)(C)n1cnc2ccc(-c3c[nH]c4ncc(-c5cnc(NS(C)(=O)=O)nc5)nc34)cc21` [P-404, N-[5-[7-(3-tert-butylbenzimidazol-5-yl)-5H-pyrrolo[2,3-b]pyrazin-2-yl]pyrimidin-2-yl]methanesulfonamide], the IC50 in test [1] lay in the range of 0.0001 to 1 µM; in test [2], 1 to 10 µM.
In the case of `CS(=O)(=O)Nc1ccc(-c2cnc3[nH]cc(-c4ccc5ncsc5c4)c3n2)cc1` [P-076, N-[4-[7-(1,3-benzothiazol-6-yl)-5H-pyrrolo[2,3-b]pyrazin-2-yl]phenyl]methanesulfonamide], the IC50 in test [2] is 1 to 10 µM; in test [3] it was 0.0001 to 1 µM.
With `COc1cnc2[nH]cc(-c3ccc4ncn(C(C)C)c4c3)c2c1` [P-050, 1-isopropyl-6-(5-methoxy-1H-pyrrolo[2,3-b]pyridin-3-yl)benzimidazole], the half-maximal inhibitory concentration (IC50) in test [1] is 0.0001 to 1 µM; in test [2], 10 to 200 µM.
Consider `CNS(=O)(=O)c1ccc(-c2cnc3[nH]cc(-c4ccc5ncsc5c4)c3n2)cc1` [P-078, 4-[7-(1,3-benzothiazol-6-yl)-5H-pyrrolo[2,3-b]pyrazin-2-yl]-N-methyl-benzenesulfonamide], for which the values for the IC50 in test [2] and in test [3] were 10 to 200 µM and 0.0001 to 1 µM, respectively.
